This assay concerns the target T1, PLK3 (Homo sapiens, UniProt Q9H4B4).
T1 construct: purchased Thermo Fisher Scientific (Life Technologies) SelectScreen
Put plainly: SelectScreen Z'LYTE. Format: biochemical. In short, it runs like this:
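Percent values come from Thermo SelectScreen profiling of NU5455, combining activity and binding assays. CSF1R was run in Z'LYTE format at Km app ATP, and CAMK1 in Adapta format with ATP listed at 10.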

T1 sequence (Q9H4B4 whole entry): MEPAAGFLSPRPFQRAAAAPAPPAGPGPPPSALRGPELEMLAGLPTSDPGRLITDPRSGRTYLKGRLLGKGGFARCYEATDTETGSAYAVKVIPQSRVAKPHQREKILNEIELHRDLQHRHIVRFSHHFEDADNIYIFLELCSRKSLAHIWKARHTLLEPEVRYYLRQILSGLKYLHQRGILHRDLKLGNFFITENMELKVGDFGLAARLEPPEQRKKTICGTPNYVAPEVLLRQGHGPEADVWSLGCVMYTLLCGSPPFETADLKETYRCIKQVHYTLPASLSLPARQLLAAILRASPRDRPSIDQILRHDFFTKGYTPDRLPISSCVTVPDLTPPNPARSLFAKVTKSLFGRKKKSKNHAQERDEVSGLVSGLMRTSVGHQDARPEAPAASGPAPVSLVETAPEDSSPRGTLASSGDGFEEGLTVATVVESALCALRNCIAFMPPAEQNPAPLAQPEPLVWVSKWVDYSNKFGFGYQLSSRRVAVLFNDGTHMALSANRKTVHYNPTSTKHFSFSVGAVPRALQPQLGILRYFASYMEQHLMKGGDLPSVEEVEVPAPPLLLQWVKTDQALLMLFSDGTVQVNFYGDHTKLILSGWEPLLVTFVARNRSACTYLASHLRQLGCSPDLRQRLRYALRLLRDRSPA

With `CN(C(=O)CN1CCOCC1)c1ccc2sc3c(-c4cccc5c(=O)cc(N6CC7CCC(C6)O7)oc45)cccc3c2c1` [NU5455], the inhibition at 1 µM was -18.2%.

In general, inhibition refers to the relative decrease from the control value, in per cent.

The record behind these values is paper PMC6934184, “Selective DNA-PKcs inhibition extends the therapeutic index of localized radiotherapy and chemotherapy” (The Journal of Clinical Investigation, 2019).
